Test results published in publication PMC6677754, “In silico design and optimization of selective membranolytic anticancer peptides” (Scientific Reports, 2019).
Peptide text beside a SMILES is read from it.

What was measured:
Assay in all cases: NCI-60 screening
Assay type in all cases: cell-based, human
786-0 = 786-0 (Renal); log GI50; 48 h, sulforhodamine B, 10^-4 to 10^-8 M
Procedure: (§1) NCI-60 screening procedure
(§2) The NCI-60 screening procedure was performed by the Developmental Therapeutics Program of the National Cancer Institute. The procedure was performed as previously described24 in 96-well microtiter plates. Each peptide was tested in a 5-concentration assay, starting at 10^-4 M and diluting 10-fold to the lowest 10^-8 M concentration. The peptides were incubated for 48 h and the cell concentration was assayed by using the sulforhodamine B assay25 and optical density measurements. The growth inhibition (GI50) value24, measures the growth inhibitory power of the drug agent. The GI50 value is the concentration of the test drug for which the condition in Eq. S1 is met, where T is the optical density of the test well after a 48-h exposure to the peptide, T0 the optical density before applying the peptide drug and C the control optical density of a well where no peptide was applied.

A549/ATCC = A549/ATCC (Lung); log GI50; 48 h, sulforhodamine B, 10^-4 to 10^-8 M
Procedure: as §1, §2

BT-549 = BT-549 (Breast); log GI50; 48 h, sulforhodamine B, 10^-4 to 10^-8 M
Procedure: as §1, §2

CAKI-1 = CAKI-1 (Renal); log GI50; 48 h, sulforhodamine B, 10^-4 to 10^-8 M
Procedure: as §1, §2

COLO 205 = COLO 205 (Colon); log GI50; 48 h, sulforhodamine B, 10^-4 to 10^-8 M
Procedure: as §1, §2

HCC-2998 = HCC-2998 (Colon); log GI50; 48 h, sulforhodamine B, 10^-4 to 10^-8 M
Procedure: as §1, §2

HCT-116 = HCT-116 (Colon); log GI50; 48 h, sulforhodamine B, 10^-4 to 10^-8 M
Procedure: as §1, §2

HCT-15 = HCT-15 (Colon); log GI50; 48 h, sulforhodamine B, 10^-4 to 10^-8 M
Procedure: as §1, §2

HOP-62 = HOP-62 (Lung); log GI50; 48 h, sulforhodamine B, 10^-4 to 10^-8 M
Procedure: as §1, §2

HT29 = HT29 (Colon); log GI50; 48 h, sulforhodamine B, 10^-4 to 10^-8 M
Procedure: as §1, §2

KM12 = KM12 (Colon); log GI50; 48 h, sulforhodamine B, 10^-4 to 10^-8 M
Procedure: as §1, §2

LOX IMVI = LOX IMVI (Melanoma); log GI50; 48 h, sulforhodamine B, 10^-4 to 10^-8 M
Procedure: as §1, §2

MCF7 = MCF7 (Breast); log GI50; 48 h, sulforhodamine B, 10^-4 to 10^-8 M
Procedure: as §1, §2

MOLT-4 = MOLT-4 (Leukemia); log GI50; 48 h, sulforhodamine B, 10^-4 to 10^-8 M
Procedure: as §1, §2

NCI-H226 = NCI-H226 (Lung); log GI50; 48 h, sulforhodamine B, 10^-4 to 10^-8 M
Procedure: as §1, §2

NCI-H23 = NCI-H23 (Lung); log GI50; 48 h, sulforhodamine B, 10^-4 to 10^-8 M
Procedure: as §1, §2

OVCAR-4 = OVCAR-4 (Ovarian); log GI50; 48 h, sulforhodamine B, 10^-4 to 10^-8 M
Procedure: as §1, §2

OVCAR-5 = OVCAR-5 (Ovarian); log GI50; 48 h, sulforhodamine B, 10^-4 to 10^-8 M
Procedure: as §1, §2

PC-3 = PC-3 (Prostate); log GI50; 48 h, sulforhodamine B, 10^-4 to 10^-8 M
Procedure: as §1, §2

RXF-393 = RXF-393 (Renal); log GI50; 48 h, sulforhodamine B, 10^-4 to 10^-8 M
Procedure: as §1, §2

SK-MEL-28 = SK-MEL-28 (Melanoma); log GI50; 48 h, sulforhodamine B, 10^-4 to 10^-8 M
Procedure: as §1, §2

SNB-19 = SNB-19 (CNS); log GI50; 48 h, sulforhodamine B, 10^-4 to 10^-8 M
Procedure: as §1, §2

SNB-75 = SNB-75 (CNS); log GI50; 48 h, sulforhodamine B, 10^-4 to 10^-8 M
Procedure: as §1, §2

TK-10 = TK-10 (Renal); log GI50; 48 h, sulforhodamine B, 10^-4 to 10^-8 M
Procedure: as §1, §2

UO-31 = UO-31 (Renal); log GI50; 48 h, sulforhodamine B, 10^-4 to 10^-8 M
Procedure: as §1, §2

Row | SMILES | Log GI (M) (786-0) | Log GI (M) (A549/ATCC) | Log GI (M) (BT-549) | Log GI (M) (CAKI-1) | Log GI (M) (COLO 205) | Log GI (M) (HCC-2998) | Log GI (M) (HCT-116) | Log GI (M) (HCT-15) | Log GI (M) (HOP-62) | Log GI (M) (HT29) | Log GI (M) (KM12) | Log GI (M) (LOX IMVI) | Log GI (M) (MCF7) | Log GI (M) (MOLT-4) | Log GI (M) (NCI-H226) | Log GI (M) (NCI-H23) | Log GI (M) (OVCAR-4) | Log GI (M) (OVCAR-5) | Log GI (M) (PC-3) | Log GI (M) (RXF-393) | other results
1 | CC[C@H](C)[C@H](NC(=O)[C@H](CCCNC(=N)N)NC(=O)[C@H](Cc1c[nH]c2ccccc12)NC(=O)[C@@H](NC(=O)[C@H](CCCCN)NC(=O)[C@H](CCCCN)NC(=O)[C@@H](NC(=O)[C@@H](NC(=O)[C@@H](NC(=O)[C@H](CCCCN)NC(=O)[C@H](Cc1ccccc1)NC(=O)[C@H](CCCCN)NC(=O)[C@H](CCCCN)NC(=O)[C@H](Cc1ccccc1)NC(=O)[C@@H](NC(=O)[C@@H](N)CCCCN)[C@@H](C)CC)[C@@H](C)O)[C@@H](C)CC)[C@@H](C)CC)C(C)C)C(=O)N[C@@H](Cc1ccccc1)C(=O)NCC(=O)N[C@@H](CCCNC(=N)N)C(=O)N[C@@H](Cc1ccccc1)C(N)=O [AmphiArc2] (H-KIFKKFKTIIKKVWRIFGRF-NH2) | -5.53 | -5.60 | -5.45 | -5.71 | -5.58 | -5.58 | -5.49 | -5.58 | -5.62 | -5.53 | -5.63 | -5.53 | -5.52 | -5.51 | -5.59 | -5.61 | -5.67 | -5.68 | -5.66 | -5.68 | Log GI (M) (SK-MEL-28): -5.66 M; Log GI (M) (SNB-19): -5.58 M; Log GI (M) (SNB-75): -5.60 M; Log GI (M) (TK-10): -5.65 M; Log GI (M) (UO-31): -5.74 M
2 | CC[C@H](C)[C@H](NC(=O)[C@H](CCCCN)NC(=O)[C@H](CCCCN)NC(=O)[C@@H](NC(=O)[C@@H](NC(=O)[C@@H](N)Cc1c[nH]cn1)[C@@H](C)CC)[C@@H](C)CC)C(=O)N[C@@H](CCCNC(=N)N)C(=O)N[C@H](C(=O)N[C@@H](Cc1c[nH]c2ccccc12)C(=O)N[C@@H](Cc1ccc(O)cc1)C(=O)N[C@@H](CCCNC(=N)N)C(=O)N[C@@H](CCCCN)C(=O)N[C@@H](C)C(=O)N[C@@H](Cc1c[nH]c2ccccc12)C(=O)N[C@@H](Cc1c[nH]cn1)C(=O)N[C@H](C(=O)N[C@@H](CC(C)C)C(=O)NCC(=O)N[C@@H](CCCCN)C(=O)N[C@H](C(N)=O)C(C)C)C(C)C)[C@@H](C)O [Off2] (H-HIIKKIRTWYRKAWHVLGKV-NH2) | -5.47 | -5.26 | -4.89 | -5.48 | -5.68 | -5.41 | -4.76 | -5.37 | -5.34 | -4.83 | -5.60 | -4.66 | -5.69 | -4.85 | -5.38 | -5.31 | -4.89 | -5.21 | -5.55 | -5.37 | Log GI (M) (SK-MEL-28): -5.58 M; Log GI (M) (SNB-19): -4.74 M; Log GI (M) (SNB-75): -4.92 M; Log GI (M) (TK-10): -5.49 M; Log GI (M) (UO-31): -4.73 M
